Reference: article PMC8123576 (International Journal of Molecular Sciences, 2021)

Assays:
[1] = system: A. flavus; assay: microbe, parasite or virus in culture; type: cell-based, Aspergillus flavus
[2] = system: aflatoxin accumulation by A. flavus; assay: microbe, parasite or virus in culture; type: cell-based, Aspergillus flavus
[3] = Aspergillus flavus, 100 µM, read-out: G.I. (%) (A. flavus growth inhibition)
[4] = Aspergillus flavus, read-out: A.I. (%) (aflatoxin accumulation inhibition)

| Molecule | G.I. (%) (A. flavus growth inhibition) ([1]; 50 µM) | G.I. (%) (A. flavus growth inhibition) ([1]; 100 µM) | A.I. (%) (aflatoxin accumulation inhibition) ([2]; 50 µM) | A.I. (%) (aflatoxin accumulation inhibition) ([2]; 100 µM) | further results |
| --- | --- | --- | --- | --- | --- |
| NC(=S)NN=Cc1cccc(O)c1O [2,3‐dihydroxybenzaldehyde thiosemicarbazone] | 53,0% | – | – | – | – |
| CC(=O)c1ccco1 [2-acetyl-furan] | – | – | – | – | activity of parent compounds on aflatoxin biosynthesis [2]: fundamentally inactive |
| CC(=O)c1cccs1 [2-acetyl-thiophene] | – | – | – | – | activity of parent compounds on aflatoxin biosynthesis [2]: fundamentally inactive |
| CC(=NNC(N)=S)c1ccco1 [2-acfurTS, 2-acetylfuranthiosemicarbazone] | – | – | – | – | impact on fungal growth ([1]; 10 to 100 µM, complexes compared with their ligand): modest inhibitory activity; maximum aflatoxin accumulation inhibition [2]: ≤ 28.7% |
| CCCCCC=CC=NNC(N)=S [2‐Octenal thiosemicarbazone] | 93,0% | 96,0% | – | – | – |
| O=C1c2ccccc2C(=O)c2cc(CO)ccc21 [2‐hydroxymethyl‐anthraquinone] | – | 62,0% | – | – | – |
| CC(C)c1ccccc1C=NNC(N)=S [2‐isopropylbenzaldehyde thiosemicarbazone] | – | – | 67,0% | 97,0% | – |
| NC(=S)NN=CCCc1ccccc1 [3‐Phenylpropanal thiosemicarbazone] | 100% | 107,0% | – | – | – |
| CC(C)c1cccc(C=NN(C)C(N)=S)c1 [3‐isopropyl benzaldehyde‐2‐methyl‐thiosemicarbazone] | – | 70,6% | – | 62,7% | – |
| CCC(/C=C/c1ccc(OC)cc1)=NNC(N)=S [(E)‐1‐(4‐methoxyphenyl)‐1‐pentene‐3‐one‐3‐thiosemicarbazone] | 62,0% | 74,0% | – | – | – |
| NC(=S)NN=C(c1ccccc1)c1ccccc1 [Benzophenone thiosemicarbazone] | – | – | – | – | inhibition at 100 µM [1, 3]: 53% |
| CC12CCC(C(=NNC(N)=S)C1=NNC(N)=S)C2(C)C (centres unmarked) [Camphorquinone bis thiosemicarbazone] | – | 58,0% | – | – | – |
| NC(=S)N/N=C\C=C\c1ccccc1 [Cinnamaldehyde thiosemicarbazone] | – | – | – | – | inhibition at 100 µM [1, 3]: 56%; inhibition at 50 µM [2, 4]: 73.1%; inhibition at 100 µM [2, 4]: 79% |
| CC(C)=CCC/C(C)=C/C=N/NC(N)=S [Citral thiosemicarbazone] | – | 57,0% | – | – | – |
| NC(=S)NN=C1CCCCC1 [Cyclohexanone thiosemicarbazone] | 80,0% | 95,0% | – | – | – |
| CCCCCCCCCC=NNC(N)=S [Decanal thiosemicarbazone] | 96,0% | 96,0% | – | 62,0% | – |
| CCCCCC1=C(C)CCC1=NNC(N)=S [Dihydrojasmone thiosemicarbazone] | – | – | 51,5% | 63,2% | – |
| NC(=S)NN=c1cc(-c2ccccc2)oc2ccccc12 [Flavone thiosemicarbazone] | 100% | 100% | – | – | – |
| O=c1cc(-c2ccccc2)oc2ccccc12 [Flavone] | – | – | – | – | inhibition at 50 µM ([1]; Aspergillus flavus, 50 µM, read-out: G.I. (%) (A. flavus growth inhibition)): 66%; inhibition at 100 µM [1, 3]: 83% |

| Molecule | G.I. (%) (A. flavus growth inhibition) ([1]; 50 µM) | G.I. (%) (A. flavus growth inhibition) ([1]; 100 µM) | A.I. (%) (aflatoxin accumulation inhibition) ([2]; 50 µM) | A.I. (%) (aflatoxin accumulation inhibition) ([2]; 100 µM) | further results |
| --- | --- | --- | --- | --- | --- |
| CCC=CCC1=C(C)CCC1=NNC(N)=S [Jasmone thiosemicarbazone] | – | – | 88,0% | 90,0% | – |
| CCCCCCCCC=NNC(N)=S [Nonanal thiosemicarbazone] | 95,0% | 100% | 91,0% | 100% | – |
| CCCCCCCC=NNC(N)=S [Octanal thiosemicarbazone] | 82,0% | 93,0% | 76,0% | 96,0% | – |
| C=C(C)C1CC=C(C=NNC(N)=S)CC1 (centres unmarked) [Perillaldehyde thiosemicarbazone] | – | 73,5% | 78,0% | 87,3% | – |
| Cc1ccc(S(=O)(=O)OCc2ccc3c(c2)C(=O)c2ccccc2C3=O)cc1 [Tosylate ‐2‐methyleneanthraquinone] | 66,0% | 87,0% | – | – | – |
| CCCCCCCCCCC=NNC(N)=S [Undecanal thiosemicarbazone] | 78,0% | 62,0% | 72,0% | 93,0% | – |
| CN(C)C(=S)NN=CC=Cc1ccccc1.CN(C)C(=S)NN=CC=Cc1ccccc1.[Zn+2] [Zn(II) Cinnamaldehyde bis 4,4‐dimethyl thiosemicarbazonate] | – | – | 75,0% | 100% | – |
| Acetylthiophene bisthiosemicarbazone | – | 65,0% | – | – | – |
| Bisvanillin thiosemicarbazone | – | 57,0% | – | 61,0% | – |
| Cu(I) chloroaqua flavone thiosemicarbazone | 60,0% | 79,0% | – | – | – |
| Cu(II) 1‐(3‐methoxyphenyl)heptan‐1‐one bisthiosemicarbazonate | – | – | 82,5% | 95,2% | – |
| Cu(II) 1‐isopropylbenzaldehyde bisthiosemicarbazonate | – | – | – | 73,5% | – |
| Cu(II) 2,3,4‐trimethoxybenzaldehyde bisthiosemicarbazonate | 55,0% | – | – | – | – |
| Cu(II) 2,4‐decadienal bisthiosemicarbazonate | 91,0% | 80,0% | – | – | – |
| Cu(II) 2‐isopropyl benzaldehyde‐2‐methyl‐thiosemicarbazone di acetate | 90,0% | 95% | 71,4% | 86,7% | – |
| Cu(II) 2‐isopropylbenzaldehyde bisthiosemicarbazonate | – | – | 65,9% | 80,8% | – |
| Cu(II) 3,4,5‐trimethoxybenzaldehyde bisthiosemicarbazonate | – | 54,0% | – | 76,0% | – |
| Cu(II) 3,4‐dimethoxybenzaldehyde bis 4,4'‐dimethyl thiosemicarbazonate | – | – | 61,4% | 84,6% | – |
| Cu(II) 3‐phenylpropanal bisthiosemicarbazonate | 69,0% | 68,0% | – | – | – |

| Molecule | G.I. (%) (A. flavus growth inhibition) ([1]; 50 µM) | G.I. (%) (A. flavus growth inhibition) ([1]; 100 µM) | A.I. (%) (aflatoxin accumulation inhibition) ([2]; 50 µM) | A.I. (%) (aflatoxin accumulation inhibition) ([2]; 100 µM) | further results |
| --- | --- | --- | --- | --- | --- |
| Cu(II) 4,7'‐dihydroxyflavone bisthiosemicarbazonate | 100% | 100% | – | – | – |
| Cu(II) Camphorquinone bisthiosemicarbazonate | – | – | – | 53,0% | – |
| Cu(II) Dihydrojasmone bisthiosemicarbazonate | – | – | 66,0% | 80,0% | – |
| Cu(II) Quinolinecarboxaldehyde bisthiosemicarbazonate | – | 60,7% | 55,7% | 88,0 | – |
| Cu(II) apocynin bisthiosemicarbazonate | 61,0% | 72,0% | 52,0% | 72,0% | – |
| Cu(II) benzaldehyde 4,4'‐dimethyl thiosemicarbazonate | – | – | – | 67,0% | – |
| Cu(II) bisvanillin thiosemicarbazonate | – | 65,5% | 53,0% | 77,0% | – |
| Cu(II) cinnamaldehyde bisthiosemicarbazonate | 58,0% | – | – | – | – |
| Cu(II) fenchone bisthiosemicarbazonate | – | 57,0% | 62,0% | 84,0% | – |
| Cu(II) heptanal bisthiosemicarbazonate | – | – | 62,8% | 85,5% | – |
| Cu(II) jasmone bisthiosemicarbazonate | – | 74,3% | 78,0% | 97,0% | – |
| Cu(II) nonanal bisthiosemicarbazonate | – | 84,1% | 90,0% | 100% | – |
| Cu(II) syringaldehyde bisthiosemicarbazonate | – | 61,0% | – | 61,0% | – |
| Dicyclohexanone thiosemicarbazone | 90,0% | 99,00% | – | – | – |
| Ni(II) perillaldehyde bisthiosemicarbazonate | – | – | 85,2% | 90,1% | – |
| Zn(II) 1‐isopropylbenzaldehyde bis thiosemicarbazone diacetate | – | – | 69,3% | 81,9% | – |
| Zn(II) 1‐isopropylbenzaldehyde bisthiosemicarbazonate | – | – | 55,3% | 100% | – |
| Zn(II) 2‐isopropylbenzaldehyde bisthiosemicarbazonate | – | – | 93,8% | 100% | – |
| Zn(II) (E)‐1‐(4‐methoxyphenyl)‐1‐pentene‐3‐one‐bis 3‐thiosemicarbazonate | 86,0% | 89,0% | – | – | – |
